Measurements as given in publication PMC6937300, “A novel phytocannabinoid isolated from Cannabis sativa L. with an in vivo cannabimimetic activity higher than Δ^9-tetrahydrocannabinol: Δ^9-Tetrahydrocannabiphorol” (Scientific Reports, 2019).

Biological target: T1, human CB1 receptor (Homo sapiens, UniProt P21554)
T1 construct: gene CNR1
T1 sequence (P21554 whole entry): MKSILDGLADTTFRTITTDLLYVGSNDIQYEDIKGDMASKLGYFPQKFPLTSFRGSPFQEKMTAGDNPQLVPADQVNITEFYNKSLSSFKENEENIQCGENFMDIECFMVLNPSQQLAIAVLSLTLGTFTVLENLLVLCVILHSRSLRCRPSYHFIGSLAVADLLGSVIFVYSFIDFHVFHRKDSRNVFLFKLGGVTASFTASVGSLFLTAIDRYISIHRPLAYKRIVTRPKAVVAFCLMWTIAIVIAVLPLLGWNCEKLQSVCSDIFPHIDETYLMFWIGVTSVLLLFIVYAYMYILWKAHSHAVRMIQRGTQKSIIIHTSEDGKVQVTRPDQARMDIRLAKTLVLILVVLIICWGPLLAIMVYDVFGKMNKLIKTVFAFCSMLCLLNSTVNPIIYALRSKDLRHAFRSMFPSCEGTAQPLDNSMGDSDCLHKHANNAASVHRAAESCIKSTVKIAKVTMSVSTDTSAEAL

Compound: CCCCCCCc1cc(O)c2c(c1)OC(C)(C)[C@@H]1CCC(C)=C[C@@H]21 [(-)-trans-Δ^9-THCP, (6aR,10aR)-3-heptyl-6,6,9-trimethyl-6a,7,8,10a-tetrahydro-6H-benzo[c]chromen-1-ol]
- Ki: 1.2 nM
